According to US7833551B2, “Inhibition of biogenic sulfide production via biocide and metabolic inhibitor combination” (ConocoPhillips Company, priority 2004, dated 2010):

Tested on: sulfate-reducing bacterial (SRB) consortium
Assay: Inhibition of sulfate reduction and sulfide production in SRB cultures for one month (MIC and biocide/metabolic inhibitor combinations)
Assay type: cell-based, sulfate-reducing bacteria (Coleville SRB enrichment)
Conditions: 720 h; minimum concentration necessary to prevent sulfide production by SRB for 30 days after contact; compound alone; certain test conditions; read-out: minimum inhibitory concentration (MIC)
Method: The sulfate-reducing bacterial (SRB) consortium used in this study was enriched from produced water obtained from the Coleville oil field near Kindersely, Sadkatchewan, Canada. […] The SRB consortium was maintained by weekly transfer in sPGC medium, and incubated at 30° C. […] The sPGC contained the following components per 1 liter of distilled water: 7 g NaCl; 1.2 g MgCl26H2O; 0.5 g KH2PO4; 1 g NH4Cl; 4.5 g Na2SO4; 0.042 g CaCl22H2O; 0.03 g MgSO47H2O; 0.004 g FeSO47H2O; 0.28 g sodium citrate; 10 g 60% sodium lactate; 1 g yeast extract; and a trace amount of rezazurin.
The cultures used in this study were grown in 100 mL of modified Coleville synthetic brine medium (mCSB) in 160-ml serum bottles, with a headspace of 5% H2, 10% CO2 balance N2. […]
Sulfate was measured using the turbidimetric method described in: American Public Health Association, Standard Methods for the Examination of Water and Wastewater. […]
For each biocide and metabolic inhibitor tested, the minimum inhibitory concentration (MIC; the minimum amount of biocide required to inhibit sulfate reduction and sulfide production in the SRB culture for one month) was determined.

O=CCCCC=O [glutaraldehyde]
MIC: 5 mM
